Consider 5 molecules from patent publication US20210015134A1, “CONSUMABLES” (Givaudan S.A., priority 2006, published 2021).

SMILES strings stand for the structures.

Assay [1] relates to sweet sensitive panelists. Nature of the assay: Ranking test, near threshold sweetness isointensity of enhancer in water (Example 3b). Type of assay: in vivo. The procedure: The sensory evaluation was conducted using a ranking method. Samples at ambient temperature were randomly presented in 15 ml blind aliquots (unidentifiable by panelists). […] After tasting each sample, the mouth was rinsed thoroughly with water at ambient temperature prior to tasting the next sample. […] They were asked to rank the samples from low to high with respect to perceived sweet taste.

Assay [2] has as its system sucrose sweetness. The conditions noted are these: at its sweetness detection threshold; Kroeze et al., Chem. Senses 2000; cited from earlier work.
Assay [3] relates to panelists. Nature of the assay: Fractionated swingle extract: comparative sensory evaluation in 0% and 2% sucrose. The conditions noted are these: from fractions at 60 ppm in 2% sucrose and LC-MS analysis. Format: in vivo. As for the experimental part: Swingle extract, comprising 80% total mogroside content by weight, was fractionated by reversed phase (C-18) flash chromatography. Compounds were eluted using a mixture of methanol (MeOH) in water starting at 30% MeOH (264 ml) followed by a linear gradient of 30-80% MeOH (1320 ml) then finally the column was flushed with 80% MeOH (264 ml). The solvents were introduced at a flow rate of 30 ml/min throughout the separation procedure. Eluted compounds were visualized with a UV detector set at 210 nm and a Corona light scattering detector. Collected fractions were pooled according to the table below then freeze dried to powders.
The powders corresponding to various pooled fractions as given in the table below were dissolved in a concentration of 60 ppm in either 0% or 2% sucrose. The sample in 0% sucrose when determined to be sweet was in addition to the 0% sucrose control also compared to a 2% sucrose control and to the other fractions to estimate the degree of sweetness.

Assay [4] has as its system sweet sensitive panelists. Nature of the assay: Forced choice test of sweetness enhancers with sweetness rating (Example 2). Type of assay: in vivo. Conditions: scale 0-10. The procedure: A forced choice test of sweetness enhancers in water, 2% sucrose and 7% sucrose
All sweetness enhancer samples were evaluated at the same concentration, which was selected close to the threshold of each sweetness enhancer, in 0% sucrose (water), 2% sucrose, and 7% sucrose.
The test samples were evaluated by a sensory panel of 10 sweet sensitive panelists. Samples were presented in 3 replicates to each panelist to give n=30 evaluations for each panel. The sensory evaluation was conducted using a forced choice method. Samples were presented blind, unidentifiable by panelists. Three runs at different sucrose concentrations were performed (0% sucrose (water/negative control), 2% sucrose, 7% sucrose). In each run, the sweetness enhancer sample was compared by panelists to a corresponding sample without sweetness enhancer at the same sucrose concentration. Panelists were instructed that they had to choose one of the samples as sweeter. The data was analyzed using beta-binomial analysis. […]
Alternatively, 0% (water), 0.5% and/or 1% and/or 1.5% sucrose were used for samples/corresponding controls and evaluated accordingly.
As a further control, the sweetness enhancer in water was compared to 0.5% and/or 1% and/or 1.5% sucrose. The result determined the sweetness intensity of the sweetness enhancer compound as such, without the sweetness due to the enhancement of sucrose.

On to `COc1ccc(CCC(=O)c2c(O)cc(O[C@@H]3O[C@H](CO)[C@@H](O)[C@H](O)[C@H]3O[C@@H]3O[C@@H](C)[C@H](O)[C@@H](O)[C@H]3O)cc2O)cc1O` [NDHC, Neohesperidin dihydrochalcone], for which the “isointensity to sucrose solution” value in assay [1] (2 ppm in water) is 0.5 % sucrose. Besides, the values for the NDHC sample sweetness result in assay [1] (2 ppm in water vs 0.5% sucrose) and in assay [1] (2 ppm in water vs 1% sucrose) were “isosweet” and “less sweet”, respectively. For the same molecule, the “enhancement of sucrose sweetness” value in assay [2] was “does not enhance sucrose sweetness”. On to `C[C@H](CC[C@@H](O[C@@H]1O[C@H](CO)[C@@H](O)[C@H](O)[C@H]1O[C@@H]1O[C@H](CO)[C@@H](O)[C@H](O)[C@H]1O)C(C)(C)O)[C@H]1CC[C@@]2(C)[C@H]3CC=C4[C@@H](CC[C@H](O[C@@H]5O[C@H](CO[C@@H]6O[C@H](CO)[C@@H](O)[C@H](O)[C@H]6O)[C@@H](O)[C@H](O)[C@H]5O)C4(C)C)[C@]3(C)[C@H](O)C[C@]12C` [mogroside IV], for which the “contribution to the observed enhancement effect of swingle extract” value in assay [3] is on record as “contributing marginally”. The same measure, in the same setting: for `C[C@H](CC[C@@H](O[C@@H]1O[C@H](CO[C@@H]2O[C@H](CO)[C@@H](O)[C@H](O)[C@H]2O)[C@@H](O)[C@H](O)[C@H]1O[C@@H]1O[C@H](CO)[C@@H](O)[C@H](O)[C@H]1O)C(C)(C)O)[C@H]1CC[C@@]2(C)[C@@H]3CC=C4[C@@H](CC[C@H](O[C@@H]5O[C@H](CO[C@@H]6O[C@H](CO)[C@@H](O)[C@H](O)[C@H]6O)[C@@H](O)[C@H](O)[C@H]5O)C4(C)C)[C@]3(C)[C@H](O)C[C@]12C` [mogroside V] the value was “mainly due to mogroside V”. Still for that read-out and setting: for `C[C@H](CC[C@@H](O[C@@H]1O[C@H](CO[C@@H]2O[C@H](CO)[C@@H](O)[C@H](O)[C@H]2O)[C@@H](O)[C@H](O)[C@H]1O[C@@H]1O[C@H](CO)[C@@H](O)[C@H](O)[C@H]1O)C(C)(C)O)[C@H]1CC[C@@]2(C)[C@@H]3CC=C4[C@@H](CC[C@H](O[C@@H]5O[C@H](CO)[C@@H](O)[C@H](O)[C@H]5O)C4(C)C)[C@]3(C)[C@H](O)C[C@]12C` [siamenoside I] the value was “contributing marginally”. Take `OC[C@H]1O[C@@](CO)(O[C@H]2O[C@H](CO)[C@@H](O)[C@H](O)[C@H]2O)[C@@H](O)[C@@H]1O` [sucrose, α-D-glucopyranosyl-(1→2)-β-D-fructofuranose]: the “rating 1% sucrose” value in assay [4] (rating 2 of Example 12B) worked out at 0.81 ± 0.08; in assay [4] (rating 2 of Example 12C), 0.72 ± 0.06.
